According to US20240139139A1, “COMPOSITION FOR PREVENTING OR TREATING CEREBROVASCULAR DISEASE” (TOKYO METROPOLITAN INSTITUTE OF MEDICAL SCIENCE, priority 2021, published 2024):

Assays:
[1] = system: cerebral infarction models of wild-type mice; assay: Cerebral infarct volume 28 days after ischemia-reperfusion in wild-type mouse model, 15-HETrE intravenous; format: in vivo; conditions: 600 ng intravenously 24, 48, 72 hours, p<0.05 vs vehicle, FIG. 15
Experimental: (§1) To identify lipids associated with pathological conditions of cerebral infarction, a comprehensive analysis was performed on lipids extracted from the cerebral tissue of a mouse model of cerebral infarction. The mouse model of cerebral infarction was prepared according to the following procedure. An embolization suture with a silicone-coated tip (Ethilon (suture gauge number 7-0), Johnson & Johnson) was inserted through the common carotid artery of 8 to 24-week-old C57BL/6N mice. Cerebral temperature was maintained at 36° C., cerebral blood flow was monitored by Doppler blood flowmeter ALF21 (ADVANCE CO., LTD.), and the embolization suture was placed at the origin of the middle cerebral artery so that the cerebral blood flow in the perfused area of the middle cerebral artery was maintained at 20 to 40% of the steady state. […]
(§2) Sections were prepared from the cerebral tissue 4 days after ischemia-reperfusion and immunohistochemistry was performed using anti-MAP2 antibody by the same procedure as in 2 above. The cerebral infarct volume was calculated based on the region that was not stained by the anti-MAP2 antibody, which is regarded as the cerebral infarct area.
(§3) Cerebral infarction models of wild-type mice were prepared (n=10) by the same procedure as in 1 above. […] The cerebral infarct volume 28 days after ischemia-reperfusion was calculated by the procedure in 6 above.

[2] = system: cerebral infarction models of wild-type mice; assay: Neurological symptoms (Bederson score) in wild-type mouse cerebral infarction model, 15-HETrE intraperitoneal; format: in vivo; conditions: 600 μg per mouse intraperitoneally 24 hours after ischemia-reperfusion, vs vehicle, FIG. 8
Experimental: (§4) To identify lipids associated with pathological conditions of cerebral infarction, a comprehensive analysis was performed on lipids extracted from the cerebral tissue of a mouse model of cerebral infarction. The mouse model of cerebral infarction was prepared according to the following procedure. An embolization suture with a silicone-coated tip (Ethilon (suture gauge number 7-0), Johnson & Johnson) was inserted through the common carotid artery of 8 to 24-week-old C57BL/6N mice. Cerebral temperature was maintained at 36° C., cerebral blood flow was monitored by Doppler blood flowmeter ALF21 (ADVANCE CO., LTD.), and the embolization suture was placed at the origin of the middle cerebral artery so that the cerebral blood flow in the perfused area of the middle cerebral artery was maintained at 20 to 40% of the steady state. By removing the embolization suture after 60 minutes of ischemia, the cerebral tissue was reperfused. As a control, sham-operated mice were prepared.
(§5) Then, cerebral infarction models of PLA2g2e knockout mice (Sato H., et al., 2014, Cell Metab, 20: 119-132) and wild-type mice were prepared by the same procedure as in 1 above (n=12, respectively), and neurological symptoms after ischemia-reperfusion were assessed over time in accordance with the neurological symptoms assessment score reported by Bederson, et al. (Bederson J B, et al., 1986, Stroke, 17: 472-476). […]

[3] = system: neurons around the infarct area; assay: RNA-seq and GO analysis of neurons around the infarct area, 15-HETrE intravenous; format: in vivo, mouse; conditions: wild-type mice; 600 ng intravenously 24, 48, 72 hours; day 4; RNA-seq vs vehicle; FIG. 18
Experimental: Cerebral infarction models of neuron-specific Padi4cKO mice and wild-type mice were prepared by the same procedure as in 1 above. At 4 days after ischemia-reperfusion, the brain was isolated after transcardial perfusion with artificial cerebrospinal fluid. The brain was sliced into 300 lam thick sections and homogenized after treated with pronase. Neurons around the infarct area were isolated using anti-Thy1.2 Antibody (BioLegend) by a cell sorter (BD FACSAria III). Single-cell RNA-seq analysis was performed using Chromium Next GEM Single Cell 3′ Kit (10× Genomics) and DNB-seq (MGI Tech), and the results of cell population clustering were visualized as a UMAP plot using Loupe Browser (10× Genomics). A gene ontology (GO) analysis was also performed for each cluster using g:profiler (https:/biit.cs.ut.ee/gprofiler/gost).
Cerebral infarction models of wild-type mice was prepared by the same procedure as in 1 above. At 24, 48, and 72 hours after ischemia-reperfusion, 15-HETrE (600 ng)/phosphate buffer was administered intravenously through the orbital venous plexus. Neurons around the infarct area were isolated from mice on day 4 after ischemia-reperfusion by the procedure in 7 above, and RNA-seq analysis was performed. The analysis results were visualized as a volcano plot using Loupe Browser, and GO analysis was performed using g:profiler. […]

[4] = system: cerebral infarction models of wild-type mice; assay: Long-term neurological symptoms by corner test and cylinder test, 15-HETrE intravenous; format: in vivo, mouse; conditions: 600 ng intravenously 24, 48, 72 hours, up to 28 days, FIG. 16, 17
Experimental: as §4, §3
In addition, long-term neurological symptoms were evaluated over time up to 28 days after ischemia-reperfusion by a corner test and a cylinder test (Nat. Med., 2017 June; 23(6):723-732). […]

[5] = system: cerebral infarction model of PLA2g2e knockout mice; assay: Cerebral infarct volume (anti-MAP2 staining) in PLA2g2e knockout mouse cerebral infarction model, oral lipid; format: in vivo; conditions: 1 mg orally 24, 48 and 72 hours after ischemia-reperfusion, 4 days after ischemia-reperfusion, FIG. 10
Experimental: as §4, with “prepared. […]” for “prepared.”
as §2

PADI4-positive neurons = assay: Number of PADI4-positive neurons in the peri-infarct area (immunohistochemistry); format: in vivo, mouse; conditions: PLA2g2e knockout mice; 1 mg orally 24, 48, 72 hours; 4 days after ischemia-reperfusion; cells per visual field; FIG. 12
Experimental: Then, mice were perfused and fixed transcardially using a 4% paraformaldehyde solution 7 days after ischemia-reperfusion, and the brains were isolated. From the isolated cerebral tissue, sections of 1 mm thickness were prepared, embedded in paraffin, thinly sliced to 5 μm, and immunohistochemistry was performed according to an ordinary method. Anti-MAP2 antibody (Sigma-Aldrich, Cat. #M4403) (1:1000 dilution) was used as a primary antibody, and anti-mouse IgG antibody derived from goat (Jackson Immuno Research Laboratories, Inc., Cat. #115-005-003) (1:300 dilution) was used as a secondary antibody. In the figure, the scale bar indicates 1 mm, and the round linear object is an air bubble that was mixed in during the preparation of the specimen. The ischemic necrotic region (unstained region) in the cerebral infarction model of PLA2g2e knockout mice has expanded compared to the cerebral infarction model of wild-type mice. […]
Also, sections were prepared from the cerebral tissue 4 days after ischemia-reperfusion and PADI4-positive neurons were detected by immunohistochemistry by the same procedure as in 2 above, and the number of cells per visual field (approximately 0.1 square millimeter) in the pen-infarct area was counted. […]

[6] = in vivo, po; cited from earlier work
[7] = system: cerebral infarction model of PLA2g2e knockout mice; assay: Neurological symptoms over time in PLA2g2e knockout mouse cerebral infarction model, oral lipid; format: in vivo; conditions: 1 mg orally 24, 48, 72 hours, vs vehicle or stearic acid, p<0.001, FIG. 11
Experimental: as §1, §5
In addition, neurological symptoms after ischemia-reperfusion were evaluated over time according to the same procedure as in 2 above.

[8] = system: promoter region of the mouse Padi4 gene; assay: Padi4 promoter luciferase reporter assay in Neuro2A cells; format: cell-based; conditions: lipids 10 μM, 24 hours, relative to untreated cells = 1, FIG. 9
Experimental: To identify the lipids inducing PADI4 expression, a luciferase reporter vector was prepared by incorporating the promoter region (SEQ ID NO: 5) of the mouse Padi4 gene (NCBI database accession number: NM_011061) into pGL3-Basic (Promega). The reporter vector was transfected into Neuro2A cells using PEI Max (Polysciences), and reporter cells were obtained. After reporter cells were cultured in media supplemented with lipids (10 μM final concentration) for 24 hours, the luciferase activity was measured with Luciferase Assay System (Promega). […]

CCCCC[C@H](O)/C=C/C=C\C/C=C\CCCCCCC(=O)O [15-HETrE, 15-hydroxyeicosatrienoic acid]
cerebral infarct volume [1]: decreased the cerebral infarct volume
neurological symptoms (Bederson neurological symptoms assessment score) [2]: improved
expression of genes associated with neural tissue formation, neurite formation and synapse formation [3]: highly expressed
long-term neurological symptoms (corner test and cylinder test) [4]: improved neurological symptoms up to 28 days

CCCCCCCCCCCCCCCCCC(=O)O [stearic acid, reference compound]
cerebral infarct volume [5]: did not change the cerebral infarct volume

CCCCC/C=C\C/C=C\C/C=C\CCCCCCC(=O)O [DGLA, dihomo-γ-linolenic acid]
cerebral infarct volume [5]: decreased the cerebral infarct volume
number of PADI4-positive neurons around the cerebral infarct area (PADI4-positive neurons): increased
migration into and accumulation in cerebral tissue [6]: migrate well into the cerebral tissue and are accumulated in the cerebral tissue even by oral intake
neurological symptoms after ischemia-reperfusion [7]: improvement in neurological symptoms
Padi4 promoter inducing activity (luciferase activity) [8]: induce Padi4 promoter activity
